Data: patent publication US10570179B2, “Substituted urea depsipeptide analogs as activators of the CLPP endopeptidase” (priority 2016, dated 2020)
Converted amounts (≈) assume the structure as drawn. Like-named read-outs stand apart in the source and are kept apart here. Numbered stars: 1 amine (or outer) side, 2 acyl side, 3 side chain; on linkers, the order of the positions; unused ones are H or OH. Bridge positions count the residues as written; N and C are the ends. Square brackets hold non-standard residues; d marks the D form. Peptide text beside a SMILES is read from it. * marks the point of attachment. ξ: configuration not given here. Piperazine(2S-CO,4-Me) = CN1CCN[C@H](C(=O)O)C1; Phe(3,5-F2) = N[C@@H](Cc1cc(F)cc(F)c1)C(=O)O; Phe(3,5-Me2) = Cc1cc(C)cc(C[C@H](N)C(=O)O)c1; NH(1-Me-indolin-5-yl) = CN1CCc2cc(N*)ccc21; Morpholine(3S-CO) = O=C(O)[C@@H]1COCCN1; Phe(3-Me) = Cc1cccc(C[C@H](N)C(=O)O)c1; NH(4-Cl-2-F-phenyl) = Fc1cc(Cl)ccc1N*; Pro(4R-Me) = C[C@H]1CN[C@H](C(=O)O)C1; NH(4-Me-phenyl) = Cc1ccc(N*)cc1; ξNMeThr = CNC(C(=O)O)[C@@H](C)O; aThr = C[C@H](O)[C@H](N)C(=O)O; Pip = O=C(O)[C@@H]1CCCCN1; CO = O=C([*:1])[*:2]

Columns and labels:
[1] = Cytotoxicity assay (CellTiter-Glo cell viability); format: cell-based; conditions: African green monkey
Experimental: Cytotoxicity was determined by determining the effect of compounds on cell viability. Vero (kidney epithelial cells; ATCC CCL-81) monolayers were trypsinized and 5000 cells/well were seeded (10-15% confluency) into white-wall, flat bottom 96 well microwell plates (Corning) using enriched Dulbecco's Modified Eagle's Medium (Hyclone: DMEM/High Glucose) containing 10% Fetal Bovine Serum (ATCC-30-2020). Plates were incubated overnight at 37° C. in the presence of 5% CO2. Drug-free media was then replaced with media containing serial dilutions of test compound or DMSO carrier. After an additional 72 hours of incubation, viability was indirectly measured using the CellTiter-Glo® Luminescent Cell Viability (Promega) assay. Assay plates were read at peak emission wavelength of 560 nm using a EnVision® Multilabel Plate Reader (Perkin Elmer) or PHERAstar FS Multilabel reader (BMG, Cary, N.C.). The concentration of test compounds that inhibited growth by 50% (IC50 value) was computed using nonlinear regression based fitting of inhibition curves using log [inhibitor] vs. response-variable slope (four parameters)—symmetrical equation, in GraphPad Prism version 6 [GraphPad Software, La Jolla, Calif. USA, www.graphpad.com]. For each experiment, compounds were tested in duplicate. IC50 values presented are the range of two biologically independent experiments.

B. subtilis = assay: Minimal inhibitory concentration, microbroth dilution; format: cell-based; conditions: Bacillus subtilis, read-out: Minimal Inhibitory Concentrations (μM) B. subtilis
Summary of the method: (§1)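 Following CLSI M7-A7 microbroth dilution, twofold serial dilutions of compound (top final concentration 200 μM) were combined with an equal volume of broth inoculum at about 10^5 cfu/mL. Plates were incubated aerobically at 37 °C overnight, and the MIC was the lowest concentration preventing visible growth.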

E. faecails = assay: as above; format: cell-based; conditions: Enterococcus faecalis
Summary of the method: as §1

MRSA NRS70 = assay: as above; format: cell-based; conditions: Staphylococcus aureus
Summary of the method: as §1

S. aureus ATCC 29213 = assay: as above; format: cell-based; conditions: Staphylococcus aureus
Summary of the method: as §1

S. aureus USA 300 = assay: as above; format: cell-based; conditions: Staphylococcus aureus
Summary of the method: as §1

S. pyogenes = assay: as above; format: cell-based; conditions: Streptococcus pyogenes, read-out: Minimal Inhibitory Concentrations (μM) S. pyogenes
Summary of the method: as §1

[2] = Plasma protein binding, rapid equilibrium dialysis; format: in vitro ADME, mouse
Plasma pharmacokinetics = format: in vivo, male BALB/c mice; conditions: Route i.v.
S. pneumoniae = assay: Minimal inhibitory concentration, microbroth dilution; format: cell-based; conditions: Streptococcus pneumoniae, read-out: Minimal Inhibitory Concentrations (μM) S. pneumoniae
Summary of the method: as §1

[3] = Vero cells, 72 hours, read-out: Cytotoxicity IC50
[4] = read-out: Minimal Inhibitory Concentrations (μM) E. faecails, MIC
[5] = read-out: Minimal Inhibitory Concentrations (μM) MRSA NRS70, MIC
[6] = ATCC29213, read-out: Minimal Inhibitory Concentrations (μM) S. aureus ATCC 29213, MIC
[7] = USA300, read-out: Minimal Inhibitory Concentrations (μM) S. aureus USA 300, MIC
[8] = plasma binding, % Bound, mouse plasma
[9] = MIC, read-out: Minimal Inhibitory Concentrations (μM) E. faecails
[10] = MIC, read-out: Minimal Inhibitory Concentrations (μM) MRSA NRS70
[11] = ATCC29213, MIC, read-out: Minimal Inhibitory Concentrations (μM) S. aureus ATCC 29213
[12] = USA300, MIC, read-out: Minimal Inhibitory Concentrations (μM) S. aureus USA 300

Compound	IC50 at 72 h [1] [µM]	MIC (B. subtilis; MIC) [µM]	MIC (E. faecails; [9]) [µM]	MIC (MRSA NRS70; [10]) [µM]	MIC (S. aureus ATCC 29213; [11]) [µM]	MIC (S. aureus USA 300; [12]) [µM]	MIC (S. pyogenes; MIC) [µM]	Mouse ([2]; mouse, 4 h, 10 μM, pH 7.4) [%]	MIC (S. pneumoniae; MIC) [µM]	also measured
Cc1ccc(NC(=O)N[C@@H](Cc2cccc(C)c2)C(=O)N[C@@H]2C(=O)N3CCC[C@H]3C(=O)N3CCCC[C@H]3C(=O)N[C@@H](C)C(=O)N3C[C@H](C)C[C@H]3C(=O)O[C@H]2C)cc1 [Compound 1, (S)-3-(M-TOLYL)-2-(3-(P-TOLYL)UREIDO)-N-((2R,6S,8AS,14AS,20S,21S,23AS)-2,6,21-TRIMETHYL-5,8,14,19,23-PENTAOXOOCTADECAHYDRO-1H,5H,14H,19H-PYRIDO[2,1-I]DIPYRROLO[2,1-C:2′,1′-L][1]OXA[4,7,10,13]TETRAAZACYCLOHEXADECIN-20-YL)PROPANAMIDE] ({NH(4-Me-phenyl)-CO}-[Phe(3-Me)][aThr]P[Pip]A[Pro(4R-Me)]; ester 2-C)	–	–	–	–	–	–	–	–	–	IC50 at 72 h [1, 3]: 1.59 ± 0.08 µM; MIC (B. subtilis): 0.313 µM (≈ 0.246 µg/mL); MIC (E. faecails; [4]): 1.25 µM (≈ 0.982 µg/mL); MIC (MRSA NRS70; [5]): 0.156 µM (≈ 0.123 µg/mL); MIC (S. aureus ATCC 29213; [6]): 0.313 µM (≈ 0.246 µg/mL); MIC (S. aureus USA 300; [7]): < 0.098 µM; MIC (S. pyogenes): 0.313 µM (≈ 0.246 µg/mL); Mouse [2, 8]: 98.9%; C^0 (Plasma pharmacokinetics): 26862.75 ng/mL; AUC(0-inf) (Plasma pharmacokinetics; male, BALB/c, mouse, in vivo, iv, 10 mg/kg, read-out: AUCinf): 7620 ng·h/mL; AUC(0-t) (Plasma pharmacokinetics; male, BALB/c, mouse, in vivo, iv, 10 mg/kg, read-out: AUClast): 7590 ng·h/mL; clearance (Plasma pharmacokinetics; male, BALB/c, mouse, in vivo, iv, 10 mg/kg, read-out: CL): 21.9 mL/min/kg; half-life (Plasma pharmacokinetics; male, BALB/c, mouse, in vivo, iv, 10 mg/kg, read-out: T1/2 (converted)): 29.4 min; Vd (Plasma pharmacokinetics; male, BALB/c, mouse, in vivo, iv, 10 mg/kg, read-out: Vss): 0.74 L/kg
Cc1cc(C)cc(C[C@H](NC(=O)Nc2ccc(Cl)cc2F)C(=O)N[C@@H]2C(=O)N3CCC[C@H]3C(=O)N3CCCC[C@H]3C(=O)N[C@@H](C)C(=O)N3C[C@H](C)C[C@H]3C(=O)O[C@H]2C)c1 [Compound 4, (S)-2-(3-(4-CHLORO-2-FLUOROPHENYL)UREIDO)-3-(3,5-DIMETHYLPHENYL)-N-((2R,6S,8AS,14AS,20S,21S,23AS)-2,6,21-TRIMETHYL-5,8,14,19,23-PENTAOXOOCTADECAHYDRO-1H,5H,14H,19H-PYRIDO[2,1-I]DIPYRROLO[2,1-C:2′,1′-L][1]OXA[4,7,10,13]TETRAAZACYCLOHEXADECIN-20-YL)PROPANAMIDE] ({NH(4-Cl-2-F-phenyl)-CO}-[Phe(3,5-Me2)][aThr]P[Pip]A[Pro(4R-Me)]; ester 2-C)	11 ± 1.9	1.25 (≈ 1.05 µg/mL)	1.25 (≈ 1.05 µg/mL)	0.156 (≈ 0.131 µg/mL)	0.625 (≈ 0.524 µg/mL)	0.625 (≈ 0.524 µg/mL)	1.25 (≈ 1.05 µg/mL)	99.8 ± 0.0	–	–
Cc1cccc(C[C@H](NC(=O)Nc2ccc(Cl)cc2F)C(=O)N[C@@H]2C(=O)N3CCC[C@H]3C(=O)N(C)C([C@@H](C)O)C(=O)N[C@@H](C)C(=O)N3C[C@H](C)C[C@H]3C(=O)O[C@H]2C)c1 (stereo partly drawn) [Compound 5] ({NH(4-Cl-2-F-phenyl)-CO}-[Phe(3-Me)][aThr]P[ξNMeThr]A[Pro(4R-Me)]; ester 2-C)	> 10	0.156 (≈ 0.129 µg/mL)	0.156 (≈ 0.129 µg/mL)	0.078 (≈ 0.0646 µg/mL)	0.078 (≈ 0.0646 µg/mL)	0.078 (≈ 0.0646 µg/mL)	0.078 (≈ 0.0646 µg/mL)	98.6 ± 0.5	0.039 (≈ 0.0323 µg/mL)	–
Cc1cccc(C[C@H](NC(=O)Nc2ccc(Cl)cc2F)C(=O)N[C@H]2COC(=O)[C@@H]3C[C@@H](C)CN3C(=O)[C@H](C)NC(=O)[C@@H]3CCCCN3C(=O)[C@@H]3CCCN3C2=O)c1 [Compound 8, (S)-2-(3-(4-CHLORO-2-FLUOROPHENYL)UREIDO)-N-((2R,6S,8AS,14AS,20S,23AS)-2,6-DIMETHYL-5,8,14,19,23-PENTAOXOOCTADECAHYDRO-1H,5H,14H,19H-PYRIDO[2,1-I]DIPYRROLO[2,1-C:2′,1′-L][1]OXA[4,7,10,13]TETRAAZACYCLOHEXADECIN-20-YL)-3-(M-TOLYL)PROPANAMIDE]	> 10	0.156 (≈ 0.126 µg/mL)	0.156 (≈ 0.126 µg/mL)	0.156 (≈ 0.126 µg/mL)	0.625 (≈ 0.506 µg/mL)	0.313 (≈ 0.254 µg/mL)	0.156 (≈ 0.126 µg/mL)	98.9 ± 0.4	0.078 (≈ 0.0632 µg/mL)	–
Cc1cccc(C[C@H](NC(=O)Nc2ccc(Cl)cc2F)C(=O)N[C@H]2COC(=O)[C@@H]3C[C@@H](C)CN3C(=O)[C@H](C)NC(=O)[C@@H]3CCCCN3C(=O)[C@@H]3C[C@@H](O)CN3C2=O)c1 [Compound 10]	> 50	0.313 (≈ 0.259 µg/mL)	0.313 (≈ 0.259 µg/mL)	0.313 (≈ 0.259 µg/mL)	0.313 (≈ 0.259 µg/mL)	0.313 (≈ 0.259 µg/mL)	0.156 (≈ 0.129 µg/mL)	99.7 ± 0.0	0.078 (≈ 0.0645 µg/mL)	–
Cc1cccc(C[C@H](NC(=O)Nc2ccc(Cl)cc2F)C(=O)N[C@H]2COC(=O)[C@@H]3C[C@@H](C)CN3C(=O)[C@H](C)NC(=O)[C@@H]3CCCCN3C(=O)[C@@H]3C[C@H](N)CN3C2=O)c1 [Compound 12, (S)—N-((2R,6S,8AS,14AS,16S,20S,23AS)-16-AMINO-2,6-DIMETHYL-5,8,14,19,23-PENTAOXOOCTADECAHYDRO-1H,5H,14H,19H-PYRIDO[2,1-I]DIPYRROLO[2,1-C:2′,1′-L][1]OXA[4,7,10,13]TETRAAZACYCLOHEXADECIN-20-YL)-2-(3-(4-CHLORO-2-FLUOROPHENYL)UREIDO)-3-(M-TOLYL)PROPANAMIDE]	> 50	1.25 (≈ 1.03 µg/mL)	1.25 (≈ 1.03 µg/mL)	1.25 (≈ 1.03 µg/mL)	1.25 (≈ 1.03 µg/mL)	0.625 (≈ 0.516 µg/mL)	0.313 (≈ 0.258 µg/mL)	99.6 ± 0.0	0.156 (≈ 0.129 µg/mL)	–
C[C@@H]1C[C@H]2C(=O)O[C@@H](C)[C@H](NC(=O)[C@H](Cc3cc(F)cc(F)c3)NC(=O)Nc3ccc4c(c3)CCN4C)C(=O)N3CCC[C@H]3C(=O)N3CCOC[C@H]3C(=O)N[C@@H](C)C(=O)N2C1 [Compound 32] ({NH(1-Me-indolin-5-yl)-CO}-[Phe(3,5-F2)][aThr]P[Morpholine(3S-CO)]A[Pro(4R-Me)]; ester 2-C)	–	–	–	–	–	–	–	–	–	IC50 at 72 h [1, 3]: 2.87 µM; MIC (B. subtilis): 0.313 µM (≈ 0.266 µg/mL); MIC (E. faecails; [4]): 0.039 µM (≈ 0.0332 µg/mL); MIC (MRSA NRS70; [5]): 0.078 µM (≈ 0.0664 µg/mL); MIC (S. aureus ATCC 29213; [6]): 0.156 µM (≈ 0.133 µg/mL); MIC (S. aureus USA 300; [7]): 0.156 µM (≈ 0.133 µg/mL); MIC (S. pneumoniae): 0.078 µM (≈ 0.0664 µg/mL); MIC (S. pyogenes): 0.156 µM (≈ 0.133 µg/mL); Mouse [2, 8]: 91.5 ± 1.5%
C[C@@H]1C[C@H]2C(=O)OC[C@H](NC(=O)[C@H](Cc3cc(F)cc(F)c3)NC(=O)Nc3ccc(Cl)cc3F)C(=O)N3CCC[C@H]3C(=O)N3CCN(C)C[C@H]3C(=O)N[C@@H](C)C(=O)N2C1 [Compound 34] ({NH(4-Cl-2-F-phenyl)-CO}-[Phe(3,5-F2)]SP[Piperazine(2S-CO,4-Me)]A[Pro(4R-Me)]; ester 2-C)	> 50	< 0.02	< 0.02	0.078 (≈ 0.0661 µg/mL)	0.078 (≈ 0.0661 µg/mL)	0.156 (≈ 0.132 µg/mL)	0.078 (≈ 0.0661 µg/mL)	97.5 ± 7.5	0.039 (≈ 0.033 µg/mL)	–
